Reference: the NIST ThermoML archive (doi:10.1016/j.fluid.2015.12.032)

Conditions: 101.33 kPa, Liquid, Falling or rolling sphere viscometry

CCCC[N+]1(C)CCOCC1.N#C[C-](C#N)C#N [4-butyl-4-methylmorpholinium tricyanomethanide]
Conditions | viscosity [mPa·s]
288.15 K | 500.4
298.15 K | 225.5
308.15 K | 118.4
318.15 K | 69.89
328.15 K | 44.14
338.15 K | 30.31
348.15 K | 21.9
358.15 K | 16.33
368.15 K | 12.77
